The record followed here is patent publication US20250346602A1, “LACTAM SUBSTITUTED IMIDAZOPYRIDAZINE IL-17A MODULATORS AND USES THEREOF” (DICE ALPHA, INC., priority 2022, published 2025).

This assay has as its target T1, IL-17A/A (Homo sapiens, UniProt Q16552).
T1 construct: purchased Genscript Z03228
T1 sequence (Q16552 24-155): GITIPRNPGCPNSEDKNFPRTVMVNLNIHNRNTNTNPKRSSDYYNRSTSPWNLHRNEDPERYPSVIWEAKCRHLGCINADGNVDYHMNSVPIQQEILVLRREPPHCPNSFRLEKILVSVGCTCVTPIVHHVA
As to the kind of experiment: IL-17A/A HEK-Blue cell assay. Particulars: HEK-Blue IL-17A reporter cell line (HEK 293), IL-17A/A stimulation, 20 hours incubation, SEAP read at A630. The class given is cell-based. Summed up:
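HEK293 reporter cells expressing IL-17RA, IL-17RC and Act1 were given titrated compound (top final 10, 1 or 0.3 uM; 0.1% DMSO) right before IL-17A/A and incubated 20 hours. NFκB-driven SEAP in the media was read at A630 with Quanti-Blue, and IC50 came from a 4-parameter nonlinear fit.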
As usually defined, the IC50 is the concentration that gives 50% inhibition. Turning to `CC(C)c1nonc1C(=O)N[C@H](c1cn2nc(CC3C[C@@H](C(F)(F)F)CNC3=O)ccc2n1)[C@@H]1CCCC(F)(F)C1` (stereo partly drawn) [Compound 151, N-((1S)—((R)-3,3-difluorocyclohexyl)(6-(((5R)-2-oxo-5-(trifluoromethyl)piperidin-3-yl)methyl)imidazo[1,2-b]pyridazin-2-yl)methyl)-4-isopropyl-1,2,5-oxadiazole-3-carboxamide], the IC50 is less than 100 nM. With `CCn1nccc1C(=O)N[C@H](c1cn2nc(CC3C[C@H](C(F)(F)F)CNC3=O)ccc2n1)C1CCC(F)(F)CC1` (stereo partly drawn) [Compound 152, N-((1S)-(4,4-difluorocyclohexyl)(6-(((5S)-2-oxo-5-(trifluoromethyl)piperidin-3-yl)methyl)imidazo[1,2-b]pyridazin-2-yl)methyl)-1-ethyl-1H-pyrazole-5-carboxamide] the figure was 100 to 1000 nM; with `CCn1nccc1C(=O)N[C@H](c1cn2nc(CC3C[C@H](C(F)(F)F)CNC3=O)ccc2n1)C(C1CC1)C1CC1` (stereo partly drawn) [Compound 153, N-((1S)-2,2-dicyclopropyl-1-(6-(((5S)-2-oxo-5-(trifluoromethyl)piperidin-3-yl)methyl)imidazo[1,2-b]pyridazin-2-yl)ethyl)-1-ethyl-1H-pyrazole-5-carboxamide], 100 to 1000 nM; with `CCn1nccc1C(=O)N[C@H](c1cn2nc(CC3C[C@H](C(F)(F)F)CNC3=O)ccc2n1)[C@H]1CC[C@H](C)CC1` (stereo partly drawn) [Compound 154, 1-Ethyl-N-((1S)-((1R.4S)-4-methylcyclohexyl)(6-(((5S)-2-oxo-5-(trifluoromethyl)piperidin-3-yl)methyl)imidazo[1,2-b]pyridazin-2-yl)methyl)-1H-pyrazole-5-carboxamide], less than 100 nM. With `O=C(N[C@H](c1cn2nc(CC3C[C@H](C(F)(F)F)CNC3=O)ccc2n1)[C@H]1CCCC(F)(F)C1)c1nonc1C1CC1` (stereo partly drawn) [Compound 155, 4-cyclopropyl-N—((S)-((S)-3,3-difluorocyclohexyl)(6-(((5S)-2-oxo-5-(trifluoromethyl)piperidin-3-yl)methyl)imidazo[1,2-b]pyridazin-2-yl)methyl)-1,2,5-oxadiazole-3-carboxamide] the figure was less than 100 nM. With `O=C(N[C@H](c1cn2nc(CC3C[C@H](C(F)(F)F)CNC3=O)ccc2n1)[C@@H]1CCCC(F)(F)C1)c1nonc1C1CC1` (stereo partly drawn) [Compound 156, 4-cyclopropyl-N—((S)-((R)-3,3-difluorocyclohexyl)(6-(((5S)-2-oxo-5-(trifluoromethyl)piperidin-3-yl)methyl)imidazo[1,2-b]pyridazin-2-yl)methyl)-1,2,5-oxadiazole-3-carboxamide] the figure was 100 to 1000 nM. Consider `O=C(N[C@H](c1cn2nc(CC3C[C@H](C(F)(F)F)CNC3=O)ccc2n1)[C@H]1CCCC(F)(F)C1)c1conc1C1CC1` (stereo partly drawn) [Compound 157, 3-cyclopropyl-N-((1S)—((S)-3,3-difluorocyclohexyl)(6-(((5S)-2-oxo-5-(trifluoromethyl)piperidin-3-yl)methyl)imidazo[1,2-b]pyridazin-2-yl)methyl)isoxazole-4-carboxamide], for which the IC50 is less than 100 nM.

`O=C(N[C@H](c1cn2nc(CC3C[C@H](C(F)(F)F)CNC3=O)ccc2n1)[C@@H]1CCCC(F)(F)C1)c1conc1C1CC1` (stereo partly drawn) [Compound 158, 3-cyclopropyl-N-((1S)—((R)-3,3-difluorocyclohexyl)(6-(((5S)-2-oxo-5-(trifluoromethyl)piperidin-3-yl)methyl)imidazo[1,2-b]pyridazin-2-yl)methyl)isoxazole-4-carboxamide]: the IC50 fell in the range of 100 to 1000 nM. With `CC(C)n1nccc1C(=O)N[C@H](c1cn2nc(CC3C[C@H](C(F)(F)F)CNC3=O)ccc2n1)[C@H]1CCCC(F)(F)C1` (stereo partly drawn) [Compound 159, N-((1S)—((S)-3,3-difluorocyclohexyl)(6-(((5S)-2-oxo-5-(trifluoromethyl)piperidin-3-yl)methyl)imidazo[1,2-b]pyridazin-2-yl)methyl)-1-isopropyl-1H-pyrazole-5-carboxamide] the figure was less than 100 nM; with `CC(C)n1nccc1C(=O)N[C@H](c1cn2nc(CC3C[C@H](C(F)(F)F)CNC3=O)ccc2n1)[C@@H]1CCCC(F)(F)C1` (stereo partly drawn) [Compound 160, N-((1S)—((R)-3,3-difluorocyclohexyl)(6-(((5S)-2-oxo-5-(trifluoromethyl)piperidin-3-yl)methyl)imidazo[1,2-b]pyridazin-2-yl)methyl)-1-isopropyl-1H-pyrazole-5-carboxamide], less than 100 nM; with `C[C@H]1CC[C@H]([C@H](NC(=O)c2conc2C2CC2)c2cn3nc(CC4C[C@@H](C(F)(F)F)CNC4=O)ccc3n2)CC1` (stereo partly drawn) [Compound 161, 3-cyclopropyl-N-((1S)-((1R.4S)-4-methylcyclohexyl)(6-(((5R)-2-oxo-5-(trifluoromethyl)piperidin-3-yl)methyl)imidazo[1,2-b]pyridazin-2-yl)methyl)isoxazole-4-carboxamide], less than 100 nM. `Cn1nccc1C(=O)N[C@H](c1cn2nc(CC3C[C@@H](C(F)(F)F)CNC3=O)ccc2n1)[C@H]1CC[C@H](C)CC1` (stereo partly drawn) [Compound 162, 1-methyl-N-((1S)-((1R.4S)-4-methylcyclohexyl)(6-(((5R)-2-oxo-5-(trifluoromethyl)piperidin-3-yl)methyl)imidazo[1,2-b]pyridazin-2-yl)methyl)-1H-pyrazole-5-carboxamide]: the IC50 lay within 100 to 1000 nM.

As to `CC(C)n1nncc1C(=O)N[C@H](c1cn2nc(CC3C[C@@H](C(F)(F)F)CNC3=O)ccc2n1)[C@H]1CC[C@H](C)CC1` (stereo partly drawn) [Compound 163, N-((1S)-((1R.4S)-4-methylcyclohexyl)(6-(((5R)-2-oxo-5-(trifluoromethyl)piperidin-3-yl)methyl)imidazo[1,2-b]pyridazin-2-yl)methyl)-1-isopropyl-1H-1,2,3-triazole-5-carboxamide], the IC50 was 100 to 1000 nM.

Consider `C[C@H]1CC[C@H]([C@H](NC(=O)c2nonc2N)c2cn3nc(CC4C[C@@H](C(F)(F)F)CNC4=O)ccc3n2)CC1` (stereo partly drawn) [Compound 164, 4-amino-N-((1S)—((1R.4S)-4-methylcyclohexyl)(6-(((5R)-2-oxo-5-(trifluoromethyl)piperidin-3-yl)methyl)imidazo[1,2-b]pyridazin-2-yl)methyl)-1,2,5-oxadiazole-3-carboxamide], for which the IC50 is more than 1000 nM. As to `Cc1nonc1C(=O)N[C@H](c1cn2nc(CC3C[C@@H](C(F)(F)F)CNC3=O)ccc2n1)[C@H]1CC[C@H](C)CC1` (stereo partly drawn) [Compound 165, 4-Methyl-N-((1S)-((1R.4S)-4-methylcyclohexyl)(6-(((5R)-2-oxo-5-(trifluoromethyl)piperidin-3-yl)methyl)imidazo[1,2-b]pyridazin-2-yl)methyl)-1,2,5-oxadiazole-3-carboxamide], the half-maximal inhibitory concentration (IC50) was in the range of 100 to 1000 nM. For `CCn1ncnc1C(=O)N[C@H](c1cn2nc(CC3C[C@@H](C(F)(F)F)CNC3=O)ccc2n1)[C@H]1CC[C@H](C)CC1` (stereo partly drawn) [Compound 166, N-((1S)-((1R.4S)-4-methylcyclohexyl)(6-(((5R)-2-oxo-5-(trifluoromethyl)piperidin-3-yl)methyl)imidazo[1,2-b]pyridazin-2-yl)methyl)-1-ethyl-1H-1,2,4-triazole-5-carboxamide], the IC50 was more than 1000 nM. With `C[C@H]1CC[C@H]([C@H](NC(=O)c2ccnn2CCO)c2cn3nc(CC4C[C@@H](C(F)(F)F)CNC4=O)ccc3n2)CC1` (stereo partly drawn) [Compound 167, 1-(2-hydroxyethyl)-N—((S)-((1R.4S)-4-methylcyclohexyl)(6-(((3R.5R)-2-oxo-5-(trifluoromethyl)piperidin-3-yl)methyl)imidazo[1,2-b]pyridazin-2-yl)methyl)-1H-pyrazole-5-carboxamide] the figure was 100 to 1000 nM; with `CC[C@@H](c1ccc(F)cc1)[C@H](NC(=O)c1ccnn1CC)c1cn2nc(CC3C[C@@H](C(F)(F)F)CNC3=O)ccc2n1` (stereo partly drawn) [Compound 168, 1-ethyl-N-((1S,2S)-2-(4-fluorophenyl)-1-(6-(((3R.5R)-2-oxo-5-(trifluoromethyl)piperidin-3-yl)methyl)imidazo[1,2-b]pyridazin-2-yl)butyl)-1H-pyrazole-5-carboxamide], less than 100 nM; with `CCn1nccc1C(=O)N[C@H](c1cn2nc(CC3C[C@@H](C(F)(F)F)CNC3=O)ccc2n1)C1CCCCCC1` (stereo partly drawn) [Compound 169, N—((S)-cycloheptyl(6-(((3R.5R)-2-oxo-5-(trifluoromethyl)piperidin-3-yl)methyl)imidazo[1,2-b]pyridazin-2-yl)methyl)-1-ethyl-1H-pyrazole-5-carboxamide], 100 to 1000 nM.

In the case of `CCn1nccc1C(=O)N[C@H](c1cn2nc(CC3C[C@@H](C(F)(F)F)CNC3=O)ccc2n1)[C@@H]1C[C@H]2C[C@H]2C1` (stereo partly drawn) [Compound 170, N-((1S)-((1R,3S,5S)-bicyclo[3.1.0]hexan-3-yl)(6-(((5R)-2-oxo-5-(trifluoromethyl)piperidin-3-yl)methyl)imidazo[1,2-b]pyridazin-2-yl)methyl)-1-ethyl-1H-pyrazole-5-carboxamide], the IC50 is more than 1000 nM. With `CCn1nccc1C(=O)N[C@@H](c1cn2nc(CC3C[C@@H](C(F)(F)F)CNC3=O)ccc2n1)[C@@H]1C[C@H]2C[C@H]2C1` (stereo partly drawn) [Compound 171, N-((1R)-((1R,3S,5S)-bicyclo[3.1.0]hexan-3-yl)(6-(((5R)-2-oxo-5-(trifluoromethyl)piperidin-3-yl)methyl)imidazo[1,2-b]pyridazin-2-yl)methyl)-1-ethyl-1H-pyrazole-5-carboxamide] the figure was 100 to 1000 nM; with `CCn1nccc1C(=O)N[C@H](c1cn2nc(CC3C[C@@H](C(F)(F)F)CNC3=O)ccc2n1)C1CC(C2CC2)(C2CC2)C1` (stereo partly drawn) [Compound 172, N-((1S)-(3,3-dicyclopropylcyclobutyl)(6-(((5R)-2-oxo-5-(trifluoromethyl)piperidin-3-yl)methyl)imidazo[1,2-b]pyridazin-2-yl)methyl)-1-ethyl-1H-pyrazole-5-carboxamide], more than 1000 nM.
